IC50, Ratio and Toxicity data for 27 compounds are collected here from ChEMBL document CHEMBL1134347, “Structure-activity studies of substituted quinoxalinones as multiple-drug-resistance antagonists” (J Med Chem, 2001).

The subject of data set [1] is MCF7. Nature of the data set: Cytotoxicity against MCF-7 breast carcinoma cells at 10 ug/mL. The class given is functional, cell-based. As to conditions: Homo sapiens.
In data set [2] the target is Multidrug resistance-associated protein 1 (Homo sapiens, UniProt P33527). Nature of the data set: The MRP1 antagonism score is the percentage of MCF-7/VP cells surviving in the absence of vincristine to that of in the presence of vincristine. The class given is functional.
Sequence of Multidrug resistance-associated protein 1 (P33527 whole entry): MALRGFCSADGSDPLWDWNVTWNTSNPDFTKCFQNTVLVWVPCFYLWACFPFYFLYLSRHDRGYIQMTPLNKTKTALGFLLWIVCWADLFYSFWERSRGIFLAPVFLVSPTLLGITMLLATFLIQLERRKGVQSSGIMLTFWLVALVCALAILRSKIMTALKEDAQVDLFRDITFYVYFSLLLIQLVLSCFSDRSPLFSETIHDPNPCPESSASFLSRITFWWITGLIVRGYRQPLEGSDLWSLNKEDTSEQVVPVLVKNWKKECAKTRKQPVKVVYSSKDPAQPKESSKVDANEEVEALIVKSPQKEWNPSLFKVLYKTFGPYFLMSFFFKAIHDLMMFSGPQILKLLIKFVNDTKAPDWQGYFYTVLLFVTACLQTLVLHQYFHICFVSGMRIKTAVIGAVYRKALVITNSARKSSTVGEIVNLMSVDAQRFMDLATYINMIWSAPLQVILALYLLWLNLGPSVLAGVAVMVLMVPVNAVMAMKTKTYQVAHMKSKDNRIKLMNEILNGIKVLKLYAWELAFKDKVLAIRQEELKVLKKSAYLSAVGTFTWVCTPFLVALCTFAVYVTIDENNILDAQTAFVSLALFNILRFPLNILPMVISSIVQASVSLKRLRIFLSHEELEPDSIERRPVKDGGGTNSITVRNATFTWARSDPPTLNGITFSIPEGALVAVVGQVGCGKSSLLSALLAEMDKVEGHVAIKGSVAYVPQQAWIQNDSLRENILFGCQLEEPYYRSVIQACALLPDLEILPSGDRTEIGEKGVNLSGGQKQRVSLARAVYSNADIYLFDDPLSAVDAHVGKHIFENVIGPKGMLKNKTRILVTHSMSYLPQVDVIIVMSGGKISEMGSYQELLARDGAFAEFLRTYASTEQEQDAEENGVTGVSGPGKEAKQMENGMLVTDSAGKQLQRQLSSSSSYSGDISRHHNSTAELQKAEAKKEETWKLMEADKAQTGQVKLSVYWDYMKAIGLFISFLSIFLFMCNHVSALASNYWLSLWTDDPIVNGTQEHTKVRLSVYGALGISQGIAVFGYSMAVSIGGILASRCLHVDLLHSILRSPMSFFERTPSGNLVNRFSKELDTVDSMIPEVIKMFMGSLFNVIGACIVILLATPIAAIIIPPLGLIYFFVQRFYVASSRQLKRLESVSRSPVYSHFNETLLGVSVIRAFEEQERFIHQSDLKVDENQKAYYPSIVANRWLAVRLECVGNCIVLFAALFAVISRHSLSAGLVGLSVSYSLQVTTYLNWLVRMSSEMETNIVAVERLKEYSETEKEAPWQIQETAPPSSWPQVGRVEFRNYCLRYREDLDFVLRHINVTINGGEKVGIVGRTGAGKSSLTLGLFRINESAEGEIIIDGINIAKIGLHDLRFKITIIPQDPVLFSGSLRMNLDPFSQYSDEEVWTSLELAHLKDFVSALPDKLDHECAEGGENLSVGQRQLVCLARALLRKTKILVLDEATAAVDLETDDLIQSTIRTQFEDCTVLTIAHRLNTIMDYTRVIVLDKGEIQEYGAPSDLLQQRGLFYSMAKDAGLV
The subject of data set [3] is MCF7. Format: functional, Homo sapiens.

In data set [1], `COc1ccc(CCN(C)CCCC(C#N)(c2ccc(OC)c(OC)c2)C(C)C)cc1OC` (stereo not drawn) had a half-maximal inhibitory concentration (IC50) above 51 µM.
For `Cn1c(=O)c(COc2cccnc2)nc2ccccc21`, the Ratio in data set [2] was determined as 1.1. Further, the IC50 in data set [1] was above 56 µM.
In data set [3], `Nc1ccccc1-c1nc2ccccc2nc1O` came in with a Toxicity of 22%. The Ratio in data set [2] is recorded as 1.1.
For the compound `Cc1nc2ccccc2nc1O`, the Ratio in data set [2] worked out at 1.1. Moreover, the 50% inhibitory concentration (IC50) in data set [1] is above 156 µM.
For the compound `Cn1c(=O)c(COc2ccc(-c3ccccc3)cc2)nc2ccccc21`, the Ratio in data set [2] turned out to be 0.7. Inhibition in data set [1] was half-maximal at 30 µM (IC50).
In data set [3], `CNc1ccc(OC)cc1-c1nc2cc3ccccc3cc2n(C)c1=O` yielded a Toxicity of 3%. Also, the Ratio in data set [2] amounted to 2.1.
Take `CN(C)c1cccc(OCc2nc3ccccc3n(C)c2=O)c1`: the Ratio in data set [2] worked out at 0.9. In data set [1], this compound came in with a 50% inhibitory concentration (IC50) of 57 µM.
For the compound `Cc1nc2ccccc2n(C)c1=O`, in data set [2], the Ratio worked out at 0.7. The same compound yielded an IC50 in data set [1] above 144 µM.
For the compound `Cn1c(=O)c(COc2ccccc2)nc2ccccc21`, the Ratio in data set [2] is given as 1. Also, in data set [1], the IC50 is above 94 µM.
With `Cn1c(=O)c(Cc2ccccc2)nc2ccccc21`, in data set [2], the Ratio stood at 1.1. For the same compound, the half-maximal inhibitory concentration (IC50) in data set [1] was above 100 µM.
Consider `CNc1ccc(OC)cc1-c1nc2ccccc2n(C)c1=O`, for which the Toxicity in data set [3] was found to be 7%. For the same compound, in data set [2], the Ratio is given as 3.5.
`CNc1ccccc1-c1nc2cc([N+](=O)[O-])ccc2n(C)c1=O`: the Toxicity in data set [3] was determined as 7%. Further, the Ratio in data set [2] is 1.1.
As to `Nc1ccccc1-c1nc2cc3ccccc3cc2nc1O`, in data set [3], the Toxicity worked out at 37%. Further, the Ratio in data set [2] is given as 1.3.
In the case of `CCOC(=O)c1ccc(OCc2nc3ccccc3n(C)c2=O)cc1`, the Ratio in data set [2] is listed as 0.9. In addition, the 50% inhibitory concentration (IC50) in data set [1] was above 74 µM.
Regarding `CNc1ccc(OC)cc1-c1nc2cc3ccccc3cc2nc1O`, the Toxicity in data set [3] worked out at 25%. In addition, the Ratio in data set [2] stood at 1.
In the case of `COC(=O)c1ccc(OCc2nc3ccccc3n(C)c2=O)c(OC)c1`, in data set [2], the Ratio came out at 1.1. In data set [1], this compound yielded an IC50 of 71 µM.
With `Cn1c(=O)c(COc2ccc(F)cc2)nc2ccccc21`, the Ratio in data set [2] was 0.8. Also, 26 µM corresponded to half-maximal inhibition in data set [1] (IC50).
For `Cn1c(=O)c(COc2ccc(C(=O)c3ccccc3)cc2)nc2ccccc21`, in that order: 0.9 and above 67 µM.
For `Cc1cc(OCc2nc3ccccc3n(C)c2=O)ccc1[N+](=O)[O-]`, in that order: 1.1 and above 77 µM.
Regarding `Cn1c(=O)c(COc2ccc(C#N)cc2)nc2ccccc21`, in data set [2], the Ratio was 0.8. For the same compound, the IC50 in data set [1] was above 43 µM.
For `Oc1nc2ccccc2nc1Cc1ccccc1`, in that order: 1 and above 106 µM.
As for `Cn1c(=O)c(COc2ccccc2C(=O)Nc2ccccc2)nc2ccccc21`, the Ratio in data set [2] turned out to be 1. In data set [1], this compound came in with a half-inhibitory concentration (IC50) above 32 µM.
As for `Nc1ccc(Br)cc1-c1nc2cc3ccccc3cc2nc1O`, the Toxicity in data set [3] turned out to be 49%. Besides, the Ratio in data set [2] was found to be 1.3.
As to `Cn1c(=O)c(COc2cccc(Nc3ccccc3)c2)nc2ccccc21`, the Ratio in data set [2] is reported as 0.9. In data set [1], this compound showed a half-maximal inhibitory concentration (IC50) of 25 µM.
For `Cn1c(=O)c(COc2cccc3ccccc23)nc2ccccc21`, in that order: 0.9 and 20 µM.
For the compound `Cn1c(=O)c(COc2ccccc2Cc2ccccc2)nc2ccccc21`, the Ratio in data set [2] is 1.1. The compound further came in with an IC50 in data set [1] of 8.1 µM.
For `Cn1c(=O)c(COc2c(F)c(F)c(F)c(F)c2F)nc2ccccc21`, in that order: 0.8 and above 70 µM.

The IC50 is the concentration that gives 50% inhibition.
